Assay results published in ChEMBL document CHEMBL2074281, “Drug excretion mediated by a new prototype of polyspecific transporter” (Nature, 1994).

T1: Solute carrier family 22 member 1 (Rattus norvegicus, UniProt Q63089)
T1 sequence (Q63089 whole entry): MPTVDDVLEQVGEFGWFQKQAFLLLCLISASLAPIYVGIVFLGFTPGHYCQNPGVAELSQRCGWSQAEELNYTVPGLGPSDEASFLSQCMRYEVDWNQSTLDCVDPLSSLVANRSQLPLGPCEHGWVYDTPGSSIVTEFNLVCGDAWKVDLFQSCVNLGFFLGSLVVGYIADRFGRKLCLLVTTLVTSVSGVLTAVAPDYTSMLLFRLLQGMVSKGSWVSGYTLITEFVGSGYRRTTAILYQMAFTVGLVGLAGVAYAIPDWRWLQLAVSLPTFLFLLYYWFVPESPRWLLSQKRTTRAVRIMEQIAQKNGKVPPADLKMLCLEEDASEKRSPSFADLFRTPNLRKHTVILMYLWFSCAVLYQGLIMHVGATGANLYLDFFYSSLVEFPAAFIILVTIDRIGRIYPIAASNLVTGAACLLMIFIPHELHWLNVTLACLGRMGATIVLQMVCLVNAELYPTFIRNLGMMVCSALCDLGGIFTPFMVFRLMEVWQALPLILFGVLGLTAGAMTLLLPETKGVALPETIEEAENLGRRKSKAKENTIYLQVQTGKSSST

B1: Solute carrier family 22 member 1 (Rattus norvegicus) (protein)
chain: T1 sequence (Q63089 whole entry)

The molecules below were run against T1, Solute carrier family 22 member 1 (assay: TP_TRANSPORTER: inhibition of TEA uptake in Xenopus laevis oocytes).
Format: functional, cell-based, Oocyte
In the case of `COC(=O)[C@H]1[C@H]2C[C@@H]3c4[nH]c5cc(OC)ccc5c4CCN3C[C@H]2C[C@@H](OC(=O)c2cc(OC)c(OC)c(OC)c2)[C@@H]1OC` [RESERPINE], the Ki is reported as over 20 µM. In the case of `CC[n+]1c(CC2C=C(C)N=C(c3ccccc3)N2C)ccc2ccccc21` (stereo unspecified) [Cyanine-863], the Ki is reported as 0.13 µM. For `COc1cc(C(O)CNC(C)C)ccc1O` (stereo unspecified) [METIPRENALINE], the Ki was 43 µM. `CNC(=O)c1cccnc1` [NICOTINYL METHYLAMIDE] was tested, and the Ki was 1000 µM. `C[C@]12C[C@H](O)[C@H]3[C@@H](CCC4=CC(=O)CC[C@@]43C)[C@@H]1CC[C@@H]2C(=O)CO` [CORTICOSTERONE] showed a Ki of over 10 µM.

These molecules were tested on CC[N+](CC)(CC)CC (assay: cells, lysate or membranes named).
Molecule B1 has a Km of 95 µM.
